According to patent publication US8134015B2, “Compound inhibiting in vivo phosphorous transport and medicine containing the same” (Kyowa Hakko Kirin Co., Ltd., priority 2003, dated 2012):

Target: T1, rat NaPi-2b (Rattus norvegicus, UniProt Q9JJ09)
T1 construct: expressed in transfected cells; host or cells: Xenopus oocytes injected with cRNA
T1 sequence (Q9JJ09 1-695): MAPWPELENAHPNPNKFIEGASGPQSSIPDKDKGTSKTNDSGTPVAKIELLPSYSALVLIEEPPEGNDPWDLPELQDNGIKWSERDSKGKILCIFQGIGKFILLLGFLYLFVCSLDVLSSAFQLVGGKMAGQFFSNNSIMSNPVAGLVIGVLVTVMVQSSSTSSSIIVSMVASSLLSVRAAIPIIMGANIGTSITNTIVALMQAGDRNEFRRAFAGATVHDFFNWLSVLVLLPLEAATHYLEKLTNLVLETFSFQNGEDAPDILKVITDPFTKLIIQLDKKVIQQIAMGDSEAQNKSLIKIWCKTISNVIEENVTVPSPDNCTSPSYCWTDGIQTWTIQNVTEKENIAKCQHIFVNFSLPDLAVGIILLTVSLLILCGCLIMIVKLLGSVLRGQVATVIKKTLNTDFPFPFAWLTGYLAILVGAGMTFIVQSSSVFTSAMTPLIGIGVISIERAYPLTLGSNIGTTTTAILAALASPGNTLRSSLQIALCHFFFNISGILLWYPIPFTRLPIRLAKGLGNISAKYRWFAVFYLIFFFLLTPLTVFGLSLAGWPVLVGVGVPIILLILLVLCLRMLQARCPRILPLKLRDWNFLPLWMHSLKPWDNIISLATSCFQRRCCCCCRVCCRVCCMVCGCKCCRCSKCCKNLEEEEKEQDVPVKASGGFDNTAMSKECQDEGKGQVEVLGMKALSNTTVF
Assay: Sodium-dependent phosphate uptake of Xenopus oocytes which expressed NaPi-2b (32P)
Assay type: cell-based
Conditions: for IC50: Xenopus oocytes expressing rat NaPi-2b, 32P radioactive phosphorus, read-out: IC50 (phosphate uptake inhibitory activity)
Procedure, shortened: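 Percent inhibition at 300 μM and 100 μM comes from the same inhibition curve of 32P uptake. Assay used oocytes expressing rat NaPi-2b after 2 days of culture.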

IC50	inhibition at 300 µM (phosphate uptake, oocytes expressing rat NaPi-2b, 300 μM, determined from inhibition curve)	SMILES
5.51 µM		COc1ccc(C(=O)Nc2ccc(C)cc2C(=O)N/N=C/c2ccc(C)cc2)cc1OC [Compound 149, 3,4-Dimethoxy-N-[4-methyl-2-(4-methyl-benzylidene-hydrazinocarbonyl)-phenyl]-benzamide]
1.1 µM		CCN(CC)CCN(Cc1cccc(C(=O)Nc2sc3c(c2C(=O)N/N=C/c2ccc(C)cc2)CCCC3)c1)C(C)=O [Compound 653, 3-{[Acetyl-(2-diethylamino-ethyl)-amino]-methyl}-N-[3-(4-methyl-benzylidene-hydrazinocarbonyl)-4,5,6,7-tetrahydro-benzo[b]-thiophen-2-yl]-benzamide]
< 3 µM		CCN(CC)CCNCc1cccc(C(=O)Nc2scc(C)c2C(=O)N/N=C/c2ccc(F)cc2)c1 [Compound 583, 3-[(2-Diethylamino-ethylamino)-methyl]-N-[3-(4-fluoro-benzylidene-hydrazinocarbonyl)-4-methyl-thiophen-2-yl]-benzamide]
9.2 µM		COc1ccc(/C=N/NC(=O)c2cc(Cl)ccc2NC(=O)c2ccc(CN(C)CCO)cc2)cc1 [Compound 419, N-[4-Chloro-2-(4-methoxy-benzylidene-hydrazinocarbonyl)-phenyl]-4-{[(2-hydroxy-ethyl)-methyl-amino]-methyl}-benzamide]
16.6 µM		COc1ccc(C(=O)Nc2ccccc2C(=O)N/N=C(\C)c2cccc(F)c2)cc1OC [Compound 213, N-{2-[1-(3-Fluoro-phenyl)-ethylidene-hydrazinocarbonyl]-phenyl}-3,4-dimethoxy-benzamide]
27.9 µM		O=C(Nc1ccc(Br)cc1C(=O)N/N=C/c1cccc(F)c1)c1ccncc1 [Compound 166, N-[4-Bromo-2-(3-fluoro-benzylidene-hydrazinocarbonyl)-phenyl]-isonicotinamide]
2.87 µM		Cc1ccc(/C=N/NC(=O)c2cc(Br)ccc2NC(=O)c2ccc(CN3CCC(CO)CC3)cc2)cc1C [Compound 332, N-[4-Bromo-2-(3,4-dimethyl-benzylidene-hydrazinocarbonyl)-phenyl]-4-(4-hydroxymethyl-piperidin-1-ylmethyl)-benzamide]
263 µM		COc1ccc(/C=N/n2c(-c3cccc(CSc4nc[nH]n4)c3)nc3sc4c(c3c2=O)CCCC4)cc1 [Compound 651, 3-[(4-Methoxy-benzylidene)-amino]-2-[3-(1H-[1,2,4]triazol-3-ylsulfanylmethyl)-phenyl]-5,6,7,8-tetrahydro-3H-benzo[4,5]thieno[2,3-d]pyrimidin-4-one]
13.7 µM		O=C(Nc1ccccc1C(=O)N/N=C/c1cccc(F)c1)c1cccnc1 [Compound 129, N-[2-(3-Fluoro-benzylidene-hydrazinocarbonyl)-phenyl]-nicotinamide]
5.22 µM		COc1ccc(/C=N/NC(=O)c2c(NC(=O)c3cccc(CN(CC(C)O)CC(C)O)c3)sc3c2CCC3)cc1 (stereo not shown) [Compound 809, 3-{[Bis-(2-hydroxy-propyl)-amino]-methyl}-N-[3-(4-methoxy-benzylidene-hydrazinocarbonyl)-5,6-dihydro-4H-cyclopenta[b]thiophen-2-yl]-benzamide]
< 3 µM		Cc1csc(NC(=O)c2cccc(CN3CCN(CCO)CC3)c2)c1C(=O)N/N=C/c1ccc(F)cc1 [Compound 577, N-[3-(4-Fluoro-benzylidene-hydrazinocarbonyl)-4-methyl-thiophen-2-yl]-3-[4-(2-hydroxy-ethyl)-piperazin-1-ylmethyl]-benzamide]
16 µM		O=C(Nc1ccc(Br)cc1C(=O)N/N=C/c1ccc(Cl)c(C(F)(F)F)c1)c1ccno1 [Compound 513, Isoxazole-5-carboxylic acid [4-bromo-2-(4-chloro-3-trifluoromethyl-benzylidene-hydrazinocarbonyl)-phenyl]-amide]
< 3 µM		O=C(Nc1ccc(I)cc1C(=O)N/N=C/c1ccc(O)cc1)c1cccc(CN2CCC(N3CCCCC3)CC2)c1 [Compound 491, 3-[1,4′]Bipiperidinyl-1′-ylmethyl-N-[2-(4-hydroxy-benzylidene-hydrazinocarbonyl)-4-iodo-phenyl]-benzamide]
17.2 µM		Cc1ccc(/C=N/NC(=O)c2cc(Br)ccc2NC(=O)c2ccc(CN3CCC(CO)CC3)cc2)cc1 [Compound 333, N-[4-Bromo-2-(4-methyl-benzylidene-hydrazinocarbonyl)-phenyl]-4-(4-hydroxymethyl-piperidin-1-ylmethyl)-benzamide]
< 3 µM		Cc1sc(NC(=O)c2cccc(CN(CC(C)O)CC(C)O)c2)c(C(=O)N/N=C/c2ccc(Cl)c(C(F)(F)F)c2)c1C (stereo not shown) [Compound 847, 3-{[Bis-(2-hydroxy-propyl)-amino]-methyl}-N-[3-(4-chloro-3-trifluoromethyl-benzylidene-hydrazinocarbonyl)-4,5-dimethyl-thiophen-2-yl]-benzamide]
17.9 µM		COc1ccc(/C=N/NC(=O)c2c(NC(=O)c3cccc(CN4CCC(CO)CC4)c3)sc3c2CCC3)cc1 [Compound 821, 3-(4-Hydroxymethyl-piperidin-1-ylmethyl)-N-[3-(4-methoxy-benzylidene-hydrazinocarbonyl)-5,6-dihydro-4H-cyclopenta[b]thiophen-2-yl]-benzamide]
2.19 µM		Cc1cccc(/C=N/NC(=O)c2cc(Br)ccc2NC(=O)c2cccc(CSc3nc[nH]n3)c2)c1 [Compound 269, N-[4-Bromo-2-(3-methyl-benzylidene-hydrazinocarbonyl)-phenyl]-3-(1H-[1,2,4]triazol-3-ylsulfanylmethyl)-benzamide]
< 3 µM		Cc1ccc(/C=N/NC(=O)c2cc(Cl)ccc2NC(=O)c2ccc(CN(C)CCO)cc2)cc1 [Compound 415, N-[4-Chloro-2-(4-methyl-benzylidene-hydrazinocarbonyl)-phenyl]-4-{[(2-hydroxy-ethyl)-methyl-amino]-methyl}-benzamide]
	32.1%	CCN(CC)CCN(C)Cc1cccc(C(=O)Nc2ccc(Cl)cc2C(=O)N/N=C/c2ccc(OCC(=O)O)cc2)c1 [Compound 1000, (4-{[5-Chloro-2-(3-{[(2-diethylamino-ethyl)-methyl-amino]-methyl}-benzoylamino)-benzoyl]-hydrazinomethyl}-phenoxy)-acetic acid]
0.86 µM		COc1cc(OC)cc(C(=O)Nc2ccccc2C(=O)N/N=C/c2cccc(F)c2)c1 [Compound 55, N-[2-(3-Fluoro-benzylidene-hydrazinocarbonyl)-phenyl]-3,5-dimethoxy-benzamide]
< 3 µM		CCN(CC)CCN(C)Cc1cccc(-c2nc3sc4c(c3c(=O)n2/N=C/c2ccc(OC)cc2)CCCC4)c1 [Compound 675, 2-(3-{[(2-Diethylamino-ethyl)-methyl-amino]-methyl}-phenyl)-3-[(4-methoxy-benzylidene-)-amino]-5,6,7,8-tetrahydro-3H-benzo[4,5]thieno[2,3-d]pyrimidin-4-one]
4.92 µM		COc1ccc(/C=N/NC(=O)c2c(NC(=O)c3cccc(CN4CCC(CO)CC4)c3)sc3ccccc23)cc1 [Compound 803, 3-(4-Hydroxymethyl-piperidin-1-ylmethyl)-N-[3-(4-methoxy-benzylidene-hydrazinocarbonyl)-benzo[b]thiophen-2-yl]-benzamide]
15.7 µM		CCOc1ccc(C(=O)Nc2ccc(Br)cc2C(=O)N/N=C/c2ccc(F)cc2)cc1 [Compound 502, N-[4-Bromo-2-(4-fluoro-benzylidene-hydrazinocarbonyl)-phenyl]-4-ethoxy-benzamide]
1.82 µM		CCN(CCO)Cc1cccc(C(=O)Nc2ccc(Cl)cc2C(=O)N/N=C/c2cccc(OC)c2)c1 [Compound 428, N-[4-Chloro-2-(3-methoxy-benzylidene-hydrazinocarbonyl)-phenyl]-3-{[ethyl-(2-hydroxy-ethyl)-amino]-methyl}-benzamide]
1.54 µM		CCN(CC)CCN(C)Cc1cccc(C(=O)Nc2ccc(N3CCOCC3)cc2C(=O)N/N=C/c2ccc(C)c(C)c2)c1 [Compound 1074, 3-{[(2-Diethylamino-ethyl)-methyl-amino]-methyl}-N-[2-(3,4-dimethyl-benzylidene-hydrazinocarbonyl)-4-morpholin-4-yl-phenyl]-benzamide]
12.3 µM		COc1ccc(C(=O)Nc2cc(Cl)ccc2C(=O)N/N=C/c2cccc(F)c2)cc1OC [Compound 71, N-[5-Chloro-2-(3-fluoro-benzylidene-hydrazinocarbonyl)-phenyl]-3,4-dimethoxy-benzamide]
3.83 µM		O=C(Nc1ccc(Br)cc1C(=O)N/N=C/c1ccc(Cl)cc1)c1ccc(F)cc1 [Compound 108, N-[4-Bromo-2-(4-chloro-benzylidene-hydrazinocarbonyl)-phenyl]-4-fluoro-benzamide]
< 3 µM		Cc1cccc(/C=N/NC(=O)c2cc(I)ccc2NC(=O)c2cccc(CN3CCC(N4CCCCC4)CC3)c2)c1 [Compound 484, 3-[1,4′]Bipiperidinyl-1′-ylmethyl-N-[4-iodo-2-(3-methyl-benzylidene-hydrazinocarbonyl)-phenyl]-benzamide]
